# According to patent US12084430B2, “Tricyclic urea compounds as JAK2 V617F inhibitors” (Incyte Corporation, priority 2022, dated 2024):
# What was measured:
# TRKA [1] = assay: TRKA enzymatic assay; assay type: biochemical
# Experimental: (§1) Example I. TRKA Enzymatic Assay
# (§2) The kinase assays were carried out at 24° C. temperature in assay buffer (HEPES 50 mM, pH 7.0, NaN3 0.02%, BSA 0.01%, Orthovanadate 0.1 mM, DTT 1 mM, MgCl2 10 mM) in a final volume of 10 μL. Testing compounds were prepared by serial dilution in DMSO and transferred to the plate wells by ECHO liquid handler (Labcyte) with 0.5% DMSO in the final assay. […]. Reactions were initiated by the addition of 5 μL ATP in assay buffer. The final 10 μL kinase reaction consists of 0.58 nM TRKA, 1 mM ATP, 500 nM TK Substrate-biotin and SEB reagent 62.5 nM in assay buffer. […] After 60 minutes incubation at room temperature, the product activity was determined by measuring the fluorescence at 620 nm and 665 nm on Pherastar microplate reader (BMG Labtech). A ratio is calculated (665/620 nm) for each well. Wells with DMSO only were served as the positive controls and wells containing no ATP were used as negative controls. IC50 determination was performed by fitting the curve of percent control activity versus the log of the compound concentration using the Gene data.
# TRKA [2] = target: TRKA (Homo sapiens, UniProt P04629); assay: TRKA enzymatic assay; assay type: biochemical; settings: 1 mM ATP
# Experimental: as §1, §2
# KIT [3] = target: KIT (Homo sapiens, UniProt P10721); assay: KIT enzymatic assay; assay type: biochemical; settings: 1 mM ATP
# Experimental: (§3) Example D. KIT Enzymatic Assay
# (§4) The kinase assays were carried out at room temperature in assay buffer (HEPES 50 mM, pH 7.0, NaN3 0.02%, BSA 0.01%, Orthovanadate 0.1 mM, DTT 1 mM, MgCl2 10 mM) in a final volume of 10 μL. Testing compounds were prepared by serial dilution in DMSO and transferred to the plate wells by ECHO liquid handler (Labcyte) with 0.5% DMSO in the final assay. […]. Reactions were initiated by the addition of 5 μL ATP in assay buffer. The final 10 μL kinase reaction consists of 0.12 nM KIT, 1 mM ATP, 500 nM TK Substrate-biotin and SEB reagent 62.5 nM in assay buffer. […] The plates were then sealed and centrifuged at 1800 rpm for 2 minutes. After 60 minutes incubation at room temperature, the product activity was determined by measuring the fluorescence at 620 nm and 665 nm on Pherastar microplate reader (BMG Labtech). A ratio is calculated (665/620 nm) for each well. Wells with DMSO only were served as the positive controls and wells containing no ATP were used as negative controls. IC50 determination was performed by fitting the curve of percent control activity versus the log of the compound concentration using the GraphPad Prism 7.0 software.
# KIT [4] = assay: KIT enzymatic assay; assay type: biochemical
# Experimental: as §3, §4
# [5] = test system: STAT5 (Tyr694) phosphorylation in SET-2 cells; assay: STAT5 (Tyr694) phosphorylation cell based assay; settings: Homo sapiens, pSTAT5, 2 hours, read-out: SET2 IC50
# Experimental: Example E. STAT5 (Tyr694) Phosphorylation Cell Based Assay
# SET-2 cells was purchased from DSMZ (Germany). RPMI1640 medium, Fetal Bovine Serum and 384-white sold flat-bottom small volume plate were purchased from Thermo Fisher Scientific (Waltham, MA). Phospho-STAT5 (Tyr694) HTRF kit was purchased from Perkin Elmer (Waltham, MA).
# SET-2 cells were cultured in RPMI media with 20% FBS at 37° C. in humidified incubator supplied with 5% CO2. On the day of assay, the cells were centrifuged to remove the culture media and resuspended with prewarmed RPMI with 10% FBS. Testing compounds were prepared by serial dilution in DMSO and 50 nL/well test compounds were transferred to the 384 white low volume cell culture plate (Greiner Bio-one) by ECHO liquid handler (Labcyte). The cells were then dispensed with Multidrop (Thermo Fisher, Waltham, MA) at 10 μL/well (7×10^6 cells/mL) with 0.5% DMSO in the final assay. After the treated cells were incubated for 2 hours at 37° C./5% CO2 incubator, 4 μL/well supplemented lysis buffer (100× blocking buffer diluted 25 fold in 4× lysis buffer, Perkin Elmer) were added and incubated at room temperature for 90 min on orbital shaker at 600 rpm. Phospho-STAT5 Cryptate antibody and Phospho-STAT5 d2 antibody (1:1 vol/vol) were premixed and diluted 20 fold with in the detection buffer (Perkin Elmer). 4 μL of the premixed antibody solution were added to each well followed with 24 hours incubation at room temperature on orbital shaker at 600 rpm. The product activity was determined by measuring the fluorescence at 620 nm and 665 nm on Pherastar microplate reader (BMG Labtech). A ratio is calculated (665/620) for each well. Wells with DMSO only served as the positive controls and wells containing high concentration of control compound were used as negative controls. IC50 determination was performed by fitting the curve of percent control activity versus the log of the compound concentration using the GraphPad Prism 7.0 software.
# Sequence of KIT (Homo sapiens, UniProt P10721) (P10721 26-976, species assumed): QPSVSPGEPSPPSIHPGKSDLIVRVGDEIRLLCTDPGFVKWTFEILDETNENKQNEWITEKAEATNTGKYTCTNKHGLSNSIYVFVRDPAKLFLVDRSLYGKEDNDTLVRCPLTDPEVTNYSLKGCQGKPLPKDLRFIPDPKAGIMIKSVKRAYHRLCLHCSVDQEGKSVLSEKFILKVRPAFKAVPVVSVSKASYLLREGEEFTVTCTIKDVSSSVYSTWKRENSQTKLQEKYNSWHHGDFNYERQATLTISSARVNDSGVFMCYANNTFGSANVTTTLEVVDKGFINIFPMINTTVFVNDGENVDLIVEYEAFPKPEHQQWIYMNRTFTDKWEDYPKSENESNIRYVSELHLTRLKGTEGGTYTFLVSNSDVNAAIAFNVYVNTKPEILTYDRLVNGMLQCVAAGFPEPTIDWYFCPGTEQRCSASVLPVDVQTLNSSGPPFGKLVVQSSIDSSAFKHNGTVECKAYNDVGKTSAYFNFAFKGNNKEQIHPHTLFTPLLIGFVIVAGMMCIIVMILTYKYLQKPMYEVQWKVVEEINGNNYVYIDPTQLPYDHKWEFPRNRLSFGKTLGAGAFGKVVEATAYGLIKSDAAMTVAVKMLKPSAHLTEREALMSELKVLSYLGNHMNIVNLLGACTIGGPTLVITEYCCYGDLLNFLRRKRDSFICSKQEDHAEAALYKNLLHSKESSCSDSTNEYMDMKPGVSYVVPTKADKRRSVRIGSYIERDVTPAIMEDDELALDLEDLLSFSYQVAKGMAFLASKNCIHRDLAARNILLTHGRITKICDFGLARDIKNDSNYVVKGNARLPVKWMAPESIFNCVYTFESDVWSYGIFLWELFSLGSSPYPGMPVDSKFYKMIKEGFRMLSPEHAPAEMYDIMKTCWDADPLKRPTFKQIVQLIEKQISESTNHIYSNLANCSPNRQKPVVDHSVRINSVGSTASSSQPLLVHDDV
# Sequence of TRKA (Homo sapiens, UniProt P04629) (P04629 33-796, species assumed): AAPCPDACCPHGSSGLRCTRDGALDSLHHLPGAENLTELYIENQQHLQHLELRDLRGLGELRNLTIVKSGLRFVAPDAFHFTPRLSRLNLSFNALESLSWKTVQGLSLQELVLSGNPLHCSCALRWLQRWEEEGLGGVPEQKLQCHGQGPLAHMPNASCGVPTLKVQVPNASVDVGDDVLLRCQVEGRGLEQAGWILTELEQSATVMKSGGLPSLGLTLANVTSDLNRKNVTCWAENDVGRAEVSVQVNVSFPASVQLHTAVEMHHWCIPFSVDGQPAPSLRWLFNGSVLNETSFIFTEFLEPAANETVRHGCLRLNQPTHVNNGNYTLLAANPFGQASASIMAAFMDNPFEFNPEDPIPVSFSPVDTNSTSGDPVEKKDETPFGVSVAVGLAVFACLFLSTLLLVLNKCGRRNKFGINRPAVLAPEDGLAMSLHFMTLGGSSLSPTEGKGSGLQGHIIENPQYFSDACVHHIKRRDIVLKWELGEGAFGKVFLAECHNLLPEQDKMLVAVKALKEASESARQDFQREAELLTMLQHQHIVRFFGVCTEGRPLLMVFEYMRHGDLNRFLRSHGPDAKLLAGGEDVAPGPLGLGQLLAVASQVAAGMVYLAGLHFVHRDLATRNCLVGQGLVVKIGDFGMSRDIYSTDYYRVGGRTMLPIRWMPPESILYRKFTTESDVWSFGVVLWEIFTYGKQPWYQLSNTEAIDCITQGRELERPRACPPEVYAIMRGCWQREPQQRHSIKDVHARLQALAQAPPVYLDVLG
SMILES,Selectivity TRKA/JH2 V617F (TRKA [1]),IC50 (TRKA [2]),IC50 (KIT [3]),Selectivity KIT/JH2 V617F (KIT [4]),IC50 [5]
"COc1nn(C)cc1-c1[nH]c2ncc3c(c2c1-c1ccc2c(cnn2C)c1)n(C1CCOCC1)c(=O)n3C [A, reference compound]",** (selectivity of >500-fold to ≤1500-fold),1250 to 2500 nM,250 to 1250 nM,* (selectivity of ≤500-fold),> 800 nM
"[2H]C([2H])([2H])n1ncc2cc(-c3c(-c4cn(C)nc4OC)[nH]c4ncc5c(c34)n(C3CCOCC3)c(=O)n5C)ccc21 [B, reference compound]",** (selectivity of >500-fold to ≤1500-fold),> 2500 nM,,** (selectivity of >500-fold to ≤1500-fold),> 800 nM
"COc1nn(C)cc1-c1[nH]c2ncc3c(c2c1-c1ccc2c(cnn2C)c1)n([C@H]1CC[C@@H](CC#N)CC1)c(=O)n3C [E, reference compound]",** (selectivity of >500-fold to ≤1500-fold),250 to 1250 nM,1250 to 2500 nM,*** (selectivity of >1500-fold to ≤1750-fold),300 to 800 nM
"COC(=O)N[C@@H]1CC[C@@H](n2c(=O)n(C)c3cnc4[nH]c(-c5cn(C)nc5OC)c(-c5ccc(F)cc5)c4c32)C1 [Example 1, Methyl ((1R,3R)-3-(8-(4-fluorophenyl)-7-(3-methoxy-1-methyl-1H-pyrazol-4-yl)-3-methyl-2-oxo-3,6-dihydroimidazo[4,5-d]pyrrolo[2,3-b]pyridin-1(2H)-yl)cyclopentyl)carbamate]",** (selectivity of >500-fold to ≤1500-fold),1250 to 2500 nM,> 2500 nM,***** (selectivity of >5000-fold to ≤12500-fold),> 800 nM
"COC(=O)N[C@@H]1CC[C@@H](n2c(=O)n(C)c3cnc4[nH]c(-c5cn(C)nc5OC)c(-c5ccccc5)c4c32)C1 [Example 2, Methyl ((1R,3R)-3-(7-(3-methoxy-1-methyl-1H-pyrazol-4-yl)-3-methyl-2-oxo-8-phenyl-3,6-dihydroimidazo[4,5-d]pyrrolo[2,3-b]pyridin-1(2H)-yl)cyclopentyl)carbamate]",**** (selectivity of >1750-fold to ≤5000-fold),> 2500 nM,> 2500 nM,**** (selectivity of >1750-fold to ≤5000-fold),300 to 800 nM
"COC(=O)N[C@@H]1CC[C@@H](n2c(=O)n(C)c3cnc4[nH]c(-c5cn(C)nc5OC)c(-c5cccc(F)c5)c4c32)C1 [Example 3, Methyl ((1R,3R)-3-(8-(3-fluorophenyl)-7-(3-methoxy-1-methyl-1H-pyrazol-4-yl)-3-methyl-2-oxo-3,6-dihydroimidazo[4,5-d]pyrrolo[2,3-b]pyridin-1(2H)-yl)cyclopentyl)carbamate]",**** (selectivity of >1750-fold to ≤5000-fold),1250 to 2500 nM,1250 to 2500 nM,**** (selectivity of >1750-fold to ≤5000-fold),300 to 800 nM
"COC(=O)N[C@@H]1CC[C@@H](n2c(=O)n(C)c3cnc4[nH]c(-c5cn(C)nc5OC)c(-c5ccc(OC)c(F)c5)c4c32)C1 [Example 4, Methyl ((1R,3R)-3-(8-(3-fluoro-4-methoxyphenyl)-7-(3-methoxy-1-methyl-1H-pyrazol-4-yl)-3-methyl-2-oxo-3,6-dihydroimidazo[4,5-d]pyrrolo[2,3-b]pyridin-1(2H)-yl)cyclopentyl)carbamate]",***** (selectivity of >5000-fold to ≤12500-fold),> 2500 nM,> 2500 nM,****** (selectivity of >12500-fold),300 to 800 nM
"[2H]C([2H])([2H])n1ncc2cc(-c3c(-c4cn(C)nc4OC)[nH]c4ncc5c(c34)n([C@@H]3CC[C@@H](NC(=O)OC)C3)c(=O)n5C)ccc21 [Example 5, Methyl ((1R,3R)-3-(7-(3-methoxy-1-methyl-1H-pyrazol-4-yl)-3-methyl-8-(1-(methyl-d3)-1H-indazol-5-yl)-2-oxo-3,6-dihydroimidazo[4,5-d]pyrrolo[2,3-b]pyridin-1(2H)-yl)cyclopentyl)carbamate]",****** (selectivity of >12500-fold),> 2500 nM,> 2500 nM,****** (selectivity of >12500-fold),≤ 300 nM
"[2H]C([2H])([2H])n1cc(-c2[nH]c3ncc4c(c3c2-c2ccc3c(cnn3C([2H])([2H])[2H])c2)n([C@@H]2CC[C@@H](NC(=O)OC)C2)c(=O)n4C([2H])([2H])[2H])c(F)n1 [Example 6, Methyl ((1R,3R)-3-(7-(3-fluoro-1-(methyl-d3)-1H-pyrazol-4-yl)-3-(methyl-d3)-8-(1-(methyl-d3)-1H-indazol-5-yl)-2-oxo-3,6-dihydroimidazo[4,5-d]pyrrolo[2,3-b]pyridin-1(2H)-yl)cyclopentyl)carbamate]",****** (selectivity of >12500-fold),> 2500 nM,250 to 1250 nM,**** (selectivity of >1750-fold to ≤5000-fold),≤ 300 nM
"[2H]C([2H])([2H])n1cc(-c2[nH]c3ncc4c(c3c2-c2ccc(F)cc2)n([C@@H]2CC[C@@H](NC(=O)OC)C2)c(=O)n4C([2H])([2H])[2H])c(F)n1 [Example 7, Methyl ((1R,3R)-3-(7-(3-fluoro-1-(methyl-d3)-1H-pyrazol-4-yl)-8-(4-fluorophenyl)-3-(methyl-d3)-2-oxo-3,6-dihydroimidazo[4,5-d]pyrrolo[2,3-b]pyridin-1(2H)-yl)cyclopentyl)carbamate]",***** (selectivity of >5000-fold to ≤12500-fold),> 2500 nM,250 to 1250 nM,** (selectivity of >500-fold to ≤1500-fold),300 to 800 nM
"[2H]C([2H])([2H])n1cc(-c2[nH]c3ncc4c(c3c2-c2ccc3c(c2)COC3(C)C)n([C@@H]2CC[C@@H](NC(=O)OC)C2)c(=O)n4C([2H])([2H])[2H])c(F)n1 [Example 8, Methyl ((1R,3R)-3-(8-(1,1-dimethyl-1,3-dihydroisobenzofuran-5-yl)-7-(3-fluoro-1-(methyl-d3)-1H-pyrazol-4-yl)-3-(methyl-d3)-2-oxo-3,6-dihydroimidazo[4,5-d]pyrrolo[2,3-b]pyridin-1(2H)-yl)cyclopentyl)carbamate]",****** (selectivity of >12500-fold),> 2500 nM,1250 to 2500 nM,****** (selectivity of >12500-fold),≤ 300 nM
"[2H]C([2H])([2H])Oc1ccc(-c2c(-c3cn(C([2H])([2H])[2H])nc3F)[nH]c3ncc4c(c23)n([C@@H]2CC[C@@H](NC(=O)OC)C2)c(=O)n4C([2H])([2H])[2H])cc1 [Example 9, Methyl ((1R,3R)-3-(7-(3-fluoro-1-(methyl-d3)-1H-pyrazol-4-yl)-8-(4-(methoxy-d3)phenyl)-3-(methyl-d3)-2-oxo-3,6-dihydroimidazo[4,5-d]pyrrolo[2,3-b]pyridin-1(2H)-yl)cyclopentyl)carbamate]",***** (selectivity of >5000-fold to ≤12500-fold),1250 to 2500 nM,250 to 1250 nM,*** (selectivity of >1500-fold to ≤1750-fold),≤ 300 nM
